Assay results taken from publication PMC8480776, “Selenium Derivatives as Promising Therapy for Chagas Disease: In Vitro and In Vivo Studies” (ACS Infectious Diseases, 2021).
Read-outs that look alike come from different tables or passages of the source.

What was measured:
[1] = system: T. cruzi trypomastigotes, SN3 strain; assay: Screening against bloodstream trypomastigotes, SN3 strain; assay type: cell-based, Trypanosoma cruzi
Vero cells = assay: Cytotoxicity test on Vero cells; assay type: cell-based; settings: Chlorocebus sabaeus, 48 h + 24 h resazurin, read-out: Toxicity IC50 Vero cell
[2] = system: epimastigotes of T. cruzi Arequipa strain; assay: Flow cytometry analysis of nucleic acid levels (acridine orange); assay type: cell-based, Trypanosoma cruzi; settings: IC25 concentrations, 72 h
[3] = system: T. cruzi amastigotes, SN3 strain; assay: Screening against intracellular amastigotes, SN3 strain; assay type: cell-based, Trypanosoma cruzi
[4] = assay type: in vivo, BALB/c mice; settings: variation vs control
Protocol: (§1) Female BALB/c mice aged 10–12 weeks and with a size of 20–24 g were divided into five groups (n = 3 per group): 0, negative control group (uninfected and untreated mice); I, positive control group (infected and untreated mice); II, BZN group (infected mice treated with BZN); III, 26 group (infected mice treated with 26); and IV, 28 group (infected mice treated with 28).
(§2) The tested selenocompounds and BZN were prepared at 2 mg·mL^–1 in an aqueous suspension vehicle containing 5% (v/v) DMSO and 0.5% (w/v) hydroxypropyl methylcellulose, as previously reported.[52] Compounds (20 mg·kg^–1 per day) were administered for 5 consecutive days (total dosages of 100 mg·kg^–1), and vehicle only was administered in the negative and positive control groups. Treatments began when the infection was confirmed (9 dpi) for acute-phase-treated mice, and when it was established that the animals moved into the chronic phase (100 dpi, for chronic-phase-treated mice; Scheme 1).
Serum samples obtained from blood in several days post-infection (Scheme 1) were sent to the Biochemical Service (University of Granada) to measure a series of biochemical parameters with the commercial Cromakit using a clinical chemistry analyzer (BS-200, Shenzhen Mindray Biomedical Electronics Co., LTD), as previously described.[41]

[5] = system: T. cruzi epimastigotes, Arequipa strain; assay: Screening against extracellular epimastigotes, Arequipa strain; assay type: cell-based, Trypanosoma cruzi
[6] = system: T. cruzi amastigotes, Arequipa strain; assay: Screening against intracellular amastigotes, Arequipa strain; assay type: cell-based, Trypanosoma cruzi
Trypanosoma cruzi Fe-SOD = assay: SOD enzymatic inhibition, Fe-SOD; assay type: biochemical
[7] = system: T. cruzi amastigotes, Tulahuen strain; assay: Screening against intracellular amastigotes, Tulahuen strain; assay type: cell-based, Trypanosoma cruzi
[8] = system: T. cruzi trypomastigotes, Arequipa strain; assay: Screening against bloodstream trypomastigotes, Arequipa strain; assay type: cell-based, Trypanosoma cruzi
[9] = system: Vero cells infected with T. cruzi Arequipa strain; assay: Infection rate in Vero cells (infected cells), Arequipa strain; assay type: cell-based; settings: Trypanosoma cruzi, 72 h of treatment
[10] = biological target: T1, human erythrocytes CuZn-SOD (Homo sapiens, UniProt P00441); assay: SOD enzymatic inhibition, CuZn-SOD; assay type: biochemical
T1 construct: commercial copper/zinc superoxide dismutase (Cu/Zn-SOD) from human erythrocytes (Sigma-Aldrich); purchased Sigma-Aldrich; host or cells: human erythrocytes (natural source)
T1 sequence (P00441 whole entry): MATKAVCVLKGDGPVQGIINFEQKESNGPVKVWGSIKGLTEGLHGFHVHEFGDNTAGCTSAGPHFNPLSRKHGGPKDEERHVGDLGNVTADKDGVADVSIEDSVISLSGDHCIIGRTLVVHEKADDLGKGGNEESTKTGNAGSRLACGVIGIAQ

[11] = system: T. cruzi trypomastigotes, Tulahuen strain; assay: Screening against bloodstream trypomastigotes, Tulahuen strain; assay type: cell-based, Trypanosoma cruzi
[12] = system: T. cruzi epimastigotes, Tulahuen strain; assay: Screening against extracellular epimastigotes, Tulahuen strain; assay type: cell-based, Trypanosoma cruzi
T. cruzi Arequipa strain = assay: In vivo trypanocidal activity on BALB/c mice (acute and chronic Chagas disease); set-up: species or system Trypanosoma cruzi
Protocol: as §1
Mice were infected by intraperitoneal injection of 5 × 10^5 BTs of T. cruzi Arequipa strain per mouse in 200 μL PBS.[42] Subsequently, the treatment was intraperitoneally administered (∼200 μL) once daily for 5 consecutive days.
as §2
[…]. Parasitemia was expressed as parasites·mL^–1.
Immunosuppression was performed by intraperitoneal injection of three doses of 200 mg·kg^–1 of ISOPAC CP at 3–4 day intervals (Scheme 1), as previously reported.[53] Mice were closely monitored for side effects or for secondary infections due to immunosuppression. Within 7 days after the last CP injection, parasitemia reactivation was determined by counting BTs according the procedure described for parasitemia in the acute phase.[42]
On 145 dpi, the mice were euthanized using CO2, followed by exsanguination via cardiac puncture, and blood was collected. […]. In addition, spleens were weighed to assess splenomegaly.[42]
DNA extraction of the post-mortem organs/tissues was performed using Wizard Genomic DNA Purification Kit,[41] and the extracted DNA was subjected to amplification by PCR based on the spliced leader (SL) intergenic region sequence of T. cruzi (for detailed description, see literature reported previously).[55] Finally, the PCR products were resolved by electrophoresis on a 2% agarose gel (containing GelRed nucleic gel stain) for 90 min at 90 V.
Circulating antibodies in serum against both antigens were quantitatively evaluated in triplicate by the ELISA test in 96-well plates using diluted serum samples (1:80 in PBS), as previously described.[41]

[13] = system: T. cruzi epimastigotes, SN3 strain; assay: Screening against extracellular epimastigotes, SN3 strain; assay type: cell-based, Trypanosoma cruzi
[14] = IC50 Vero cells/IC50 trypomastigotes
[15] = IC50 Vero cells/IC50 amastigotes
[16] = treatment in acute phase, 15th dpi (2 days after treatment)
[17] = treatment in acute phase, necropsy day
[18] = treatment in chronic phase, 106th dpi (2 days after treatment)
[19] = treatment in chronic phase, necropsy day
[20] = IC50 Vero cells/IC50 epimastigotes
[21] = 20 mg·kg–1 per day i.p. 5 days from 9 dpi
[22] = 20 mg·kg–1 per day i.p. 5 days from 100 dpi

N#C[Se]c1ccc(NC(=O)c2ccco2)cc1 [Compound 28]
selectivity index (SI), SN3 strain, trypom. forms [1, 14]: 53
IC50 ([1]; Trypanosoma cruzi, bloodstream trypomastigotes, 24 h + 4 h resazurin, read-out: activity IC50, SN3 strain, trypom. forms): 1.7 ± 0.2 µM
CC50 (Vero cells): 89.3 ± 7.5 µM
inhibition of nucleic acid levels [2]: 62%
selectivity index (SI), SN3 strain, am. forms [3, 15]: 53
IC50 ([3]; Trypanosoma cruzi, amastigotes in Vero cells, 72 h, read-out: activity IC50, SN3 strain, am. forms): 1.7 ± 0.4 µM
ALP (liver marker) [4, 16]: + (+/-, 10-20% increase/decrease over the range)
ALT/GPT (liver marker) [4, 16]: ++ (++/--, 20-30% increase/decrease over the range)
AST/GOT (liver marker) [4, 16]: ++ (++/--, 20-30% increase/decrease over the range)
CK-MB (heart marker) [4, 16]: ++++ (++++/----, ˃ 40% increase/decrease over the range)
LDH (heart marker) [4, 16]: - (+/-, 10-20% increase/decrease over the range)
Total bilirubin (liver marker) [4, 16]: ++ (++/--, 20-30% increase/decrease over the range)
Urea (kidney marker) [4, 16]: -- (++/--, 20-30% increase/decrease over the range)
Uric acid (kidney marker) [4, 16]: ---- (++++/----, ˃ 40% increase/decrease over the range)
ALP (liver marker) [4, 17]: + (+/-, 10-20% increase/decrease over the range)
ALT/GPT (liver marker) [4, 17]: ++ (++/--, 20-30% increase/decrease over the range)
AST/GOT (liver marker) [4, 17]: + (+/-, 10-20% increase/decrease over the range)
CK-MB (heart marker) [4, 17]: = (=, variation ≤ 10%)
LDH (heart marker) [4, 17]: = (=, variation ≤ 10%)
Total bilirubin (liver marker) [4, 17]: = (=, variation ≤ 10%)
Urea (kidney marker) [4, 17]: = (=, variation ≤ 10%)
Uric acid (kidney marker) [4, 17]: - (+/-, 10-20% increase/decrease over the range)
ALP (liver marker) [4, 18]: + (+/-, 10-20% increase/decrease over the range)
ALT/GPT (liver marker) [4, 18]: + (+/-, 10-20% increase/decrease over the range)
AST/GOT (liver marker) [4, 18]: = (=, variation ≤ 10%)
CK-MB (heart marker) [4, 18]: ++ (++/--, 20-30% increase/decrease over the range)
LDH (heart marker) [4, 18]: = (=, variation ≤ 10%)
Total bilirubin (liver marker) [4, 18]: = (=, variation ≤ 10%)
Urea (kidney marker) [4, 18]: = (=, variation ≤ 10%)
Uric acid (kidney marker) [4, 18]: = (=, variation ≤ 10%)
ALP (liver marker) [4, 19]: = (=, variation ≤ 10%)
ALT/GPT (liver marker) [4, 19]: = (=, variation ≤ 10%)
AST/GOT (liver marker) [4, 19]: + (+/-, 10-20% increase/decrease over the range)
CK-MB (heart marker) [4, 19]: + (+/-, 10-20% increase/decrease over the range)
LDH (heart marker) [4, 19]: = (=, variation ≤ 10%)
Total bilirubin (liver marker) [4, 19]: = (=, variation ≤ 10%)
Urea (kidney marker) [4, 19]: = (=, variation ≤ 10%)
Uric acid (kidney marker) [4, 19]: = (=, variation ≤ 10%)
Selectivity index (SI), epimastigotes, Arequipa strain [5, 20]: 19
IC50 ([5]; Trypanosoma cruzi, 48 h + 24 h resazurin, read-out: Activity IC50, epimastigote form, Arequipa strain): 4.8 ± 0.4 µM
selectivity index (SI), Arequipa strain, am. forms [6, 15]: 28
IC50 ([6]; Trypanosoma cruzi, amastigotes in Vero cells, 72 h, read-out: activity IC50, Arequipa strain, am. forms): 3.2 ± 0.4 µM
IC50 (Trypanosoma cruzi Fe-SOD): 9.4 µM
selectivity index (SI), Tulahuen strain, am. forms [7, 15]: 33
IC50 ([7]; Trypanosoma cruzi, TULAHUEN, amastigotes in Vero cells, 72 h, read-out: activity IC50, Tulahuen strain, am. forms): 2.7 ± 0.3 µM
selectivity index (SI), Arequipa strain, trypom. forms [8, 14]: 50
IC50 ([8]; Trypanosoma cruzi, bloodstream trypomastigotes, 24 h + 4 h resazurin, read-out: activity IC50, Arequipa strain, trypom. forms): 1.8 ± 0.1 µM
IC50 [9]: 19.7 µM
IC50 [10]: > 100 µM
selectivity index (SI), Tulahuen strain, trypom. forms [11, 14]: 50
IC50 ([11]; Trypanosoma cruzi, TULAHUEN, bloodstream trypomastigotes, 24 h + 4 h resazurin, read-out: activity IC50, Tulahuen strain, trypom. forms): 1.8 ± 0.2 µM
Selectivity index (SI), epimastigotes, Tulahuen strain [12, 20]: 19
IC50 ([12]; Trypanosoma cruzi, TULAHUEN, 48 h + 24 h resazurin, read-out: Activity IC50, epimastigote form, Tulahuen strain): 4.6 ± 0.3 µM
anti-T. cruzi IgG levels (ELISA), acute phase treatment (T. cruzi Arequipa strain; [21]): lower IgG values than the treated with BZN at the beginning of the treatment
splenomegaly reduction in comparison with untreated mice, acute phase treatment (T. cruzi Arequipa strain; [21]): 37%
parasitaemia reactivation after immunosuppression, acute phase treatment (T. cruzi Arequipa strain; 20 mg·kg–1 per day i.p. 5 days from 9 dpi, compared to untreated group): approximately 95%
anti-T. cruzi IgG levels (ELISA), chronic phase treatment (T. cruzi Arequipa strain; [22]): similar
splenomegaly reduction in comparison with untreated mice, chronic phase treatment (T. cruzi Arequipa strain; [22]): 48%
parasitaemia reactivation after immunosuppression, chronic phase treatment (T. cruzi Arequipa strain; 20 mg·kg–1 per day i.p. 5 days from 100 dpi, compared to untreated group): ~85%
parasite levels in target organs/tissues by PCR (in words) (T. cruzi Arequipa strain; 20 mg·kg–1 per day i.p. 5 days, necropsy 145 dpi): did not decrease enough parasite levels in the analyzed tissues
parasitaemia profile during the acute phase (T. cruzi Arequipa strain; 20 mg·kg–1 per day i.p. for 5 days from 9 dpi): slight antiparasitic activity over the first month
Selectivity index (SI), epimastigotes, SN3 strain [13, 20]: 24
IC50 ([13]; Trypanosoma cruzi, 48 h + 24 h resazurin, read-out: Activity IC50, epimastigote form, SN3 strain): 3.8 ± 0.4 µM
